Data taken from ChEMBL document CHEMBL3507680, “University of Dundee, Gates Library screen for HepG2 cell viability”.

Test: Human HepG2 cell viability assay in 384 well format
Assay type: toxicity, cell-based
Set-up: dose 125 nL, time 70.5 hour; concentration not given beside the values
Details: HepG2 cells, read-out: Inhibition

Row | Compound | cytotoxicity at 70.5 h
1 | CCCN1CCN(Cc2cccc(OC)c2)[C@H]2CS(=O)(=O)C[C@H]21 | 25.9%
2 | NCC1Cc2cccc(-c3nccc(N4CCC(O)CC4)n3)c2O1 (centres undefined) | 7.11%
3 | Cc1nn2c(N3CCS(=O)(=O)CC3)cc(-c3ccccc3)nc2c1C | 1.53%
4 | CC1CCN(CC(=O)N(Cc2ccccc2)Cc2nccs2)C1=O (centres undefined) | -11.6%
5 | Cc1ccc(C(=O)N2CCCC3(C2)C(=O)N(C)c2ccccc23)c(=O)[nH]1 (centres undefined) | -10.2%
6 | CC(C)=CCN1C[C@H]2CC[C@@H]1CN(C(=O)c1ccc3c(c1)OCO3)C2 | 1.98%
7 | CCC(CO)N(Cc1ccco1)C(=O)c1cccc(C)c1O (centres undefined) | -0.632%
8 | COc1ccc(-c2ccncc2)cc1CNC1CCCC1 | -4.27%
9 | Cc1nc2c(c(N3CCC(CCn4cccn4)CC3)n1)CCNCC2 | -2.46%
10 | COc1nccnc1N1CCC2(CCCN(C(C)C)C2=O)C1 (centres undefined) | -4.89%
11 | CCN(Cc1noc(C)n1)C(=O)CCc1scnc1C | 3.89%
12 | Cc1ccc2oc(=O)n(CCC(=O)N3CCN(C)C(=O)C3)c2c1 | -3.44%
13 | O=C(NCCc1cccnc1)c1ccc2nccn2c1 | -16.8%
14 | Cn1ccnc1CN1CCCC(CCc2ccc(F)c(F)c2)C1 (centres undefined) | -1.61%
15 | CCc1ncc2c(n1)CN(C(=O)Cc1cc(OC)cc(OC)c1)C2 | -14%
16 | Cc1nc2c(c(N[C@H](C(N)=O)C(C)C)n1)Cc1ccccc1OC2 | -11.2%
17 | COc1ccc(Cl)cc1-n1c(COC(C)C)n[nH]c1=O | -9.9%
18 | CCc1nc(C)c(CC(=O)N2CCC3(CC2)OCCCC3OC)c(=O)[nH]1 (centres undefined) | -6.31%
19 | CC(C)N1CCCC(C(=O)NCCCc2cnn(C)c2)C1 (centres undefined) | 17.4%
20 | CCc1cc(NC(C)(C)C)nc(N2CCOCC2)n1 | -12%
21 | COc1ccc2c(c1)C(C(=O)NCCCN1CCN(C)CC1)CC(=O)N2 (centres undefined) | -25%
22 | Cc1ccnc(CC(C)N(C)Cc2ccc3c(c2)CCO3)c1 (centres undefined) | -5.48%

Row | Compound | cytotoxicity at 70.5 h
23 | COc1cc(N2CCC(c3nccn3CCCN(C)C)CC2)nc(N)n1 | -1.61%
24 | O=C(NCC1=CCCCC1)C(c1cccnc1)N1CCOCC1 (centres undefined) | -1.14%
25 | OC1CCN(C2CCN(Cc3cnc(-c4cccs4)nc3)CC2)CC1 | 12.5%
26 | CCc1ncc(C(=O)NCCn2c(C)cc(C)nc2=O)cn1 | -1.56%
27 | CCc1cccc(OC2CN(C(=O)[C@@H](N)[C@@H](C)O)C2)c1 | -8.46%
28 | Cc1ccnc(N2CCN(Cc3ccccc3)CC(O)C2)c1 (centres undefined) | -3.12%
29 | Cc1ccc(C(=O)N2[C@@H]3CC[C@H]2CN(C)C(=O)C3)c(=O)[nH]1 | -8.22%
30 | CCN1CCc2[nH]cnc2C12CCN(Cc1ccc3nsnc3c1)CC2 | -5.41%
31 | Cc1cc2ccccc2n1CCC(=O)N1CCCC1Cn1cccn1 (centres undefined) | -9.07%
32 | CCCc1nc(C)cc(N2Cc3cnn(CCO)c3C2)n1 | 0.818%
33 | COCCC1(C(=O)O)CCCN(Cc2ccccc2OCCO)C1 (centres undefined) | -8.44%
34 | O=C(CCc1cn[nH]c1)N1C[C@H](CO)C[C@H](CN2CCOCC2)C1 | -8.81%
35 | CCCc1nnc(N2CCN(c3ccccc3Cl)CC2)o1 | -0.178%
36 | Cc1ccc(C2(O)CCN(C(=O)Cn3cc(C)c(=O)[nH]c3=O)CC2)nc1 | -7.28%
37 | CN(Cc1ccccc1)c1ncccc1CNC1CN2CCC1CC2 (centres undefined) | -6.82%
38 | O=C(C1CCS(=O)(=O)CC1)N1C[C@H]2CC[C@@H]1CN(Cc1ccccc1)C2 | 10.4%
39 | CSCC(=O)N1CCC(c2nccn2Cc2cscn2)CC1 | -2.59%
40 | CC[C@@H](c1ccccc1)n1c(CN)n[nH]c1=O | -13.5%
41 | COCCc1noc(-c2ccc(N[C@H]3CCCCNC3=O)nc2)n1 | 1.36%
42 | NC(=O)N1CCCC(C(=O)NCc2noc(Cc3ccccc3)n2)C1 (centres undefined) | -12.7%
43 | CCc1ncc(C(=O)N2CCN(Cc3ncccc3C)CC2)cn1 | -14.7%
44 | C[C@@H]1CN(CC(C)(C)N2CCCCC2)CC[C@@]1(O)C1CC1 | -5.05%

Row | Compound | cytotoxicity at 70.5 h
45 | O=c1cc(N2CCNCC2)cnn1CCCn1cccn1 | -9.24%
46 | CN1N=C(C(=O)N2CCCC(CCc3ccccc3F)C2)CCC1=O (centres undefined) | -5.83%
47 | O=C(c1ccsc1)N1CCc2c(nc(-c3ccncc3)[nH]c2=O)C1 | -6.38%
48 | Cc1nc(N(C)C2CCCCC2)ncc1C(C)NC(=O)c1cccnc1 (centres undefined) | -5.07%
49 | CC(CCc1ccc(O)cc1)NC1CCN(S(C)(=O)=O)CC1 (centres undefined) | -4.22%
50 | Cc1nc(N)ccc1CC1COc2ccccc2C1 (centres undefined) | 15%
51 | COCCC1(CO)CCCN(C(=O)c2cc(Cl)ccc2F)C1 (centres undefined) | -11%
52 | O=C1CC(c2ncc(-c3ccc4c(c3)OCCO4)[nH]2)CN1C1CCCC1 (centres undefined) | -4.48%
53 | COCCN(C)C[C@H]1C[C@H](CO)CN(C(=O)c2ccc(=O)n(C)c2)C1 | -3.23%
54 | N[C@@H]1c2ccccc2C2(CCN(c3cccc(C(F)(F)F)n3)CC2)[C@H]1O | 5.4%
55 | Cn1ncc2c(NCC3CCS(=O)(=O)C3)nc(-c3ccncc3)nc21 (centres undefined) | 21.3%
56 | CC(=O)Nc1cccc(C(=O)N2CCc3c(nc(N(C)C)[nH]c3=O)C2)c1 | 16.1%
57 | CCS(=O)(=O)c1ncc(CN(C)Cc2ccccc2Cl)n1CCOC | -2.37%
58 | CN(C)C[C@H]1C[C@@H](CO)CN(C(=O)c2cc(=O)[nH]c3cc(F)ccc23)C1 | -2.71%
59 | CCOc1ccccc1CN(C)C(=O)CN1C(=O)OC[C@@H]1C(C)C | 15.5%
60 | Cc1cccc(C(C(=O)N2CC(c3ccncc3)C2)N(C)C)c1 (centres undefined) | 12.4%
61 | O=C(O)c1cccc(CC2CCN(c3ncccn3)CC2)c1 | 3.25%
62 | CCN(Cc1ccncc1)c1cc(C2CCNCC2)nc(C)n1 | 19.5%
63 | COCCN(Cc1ccccn1)Cc1sccc1C | -10.3%
64 | CCn1cc(CN2CCC(c3ccncc3)CC2)cc1C#N | -5.65%
65 | CC(=O)N[C@H]1CCN(c2nc(C)nc3c2c(C)nn3C)C1 | -8.71%
66 | COc1cc(CN2CCN(CC3CC3)[C@@H]3CS(=O)(=O)C[C@@H]32)cc(OC)c1 | 3.14%

Row | Compound | cytotoxicity at 70.5 h
67 | COCCN1CCN(Cc2ccncc2)[C@H]2CS(=O)(=O)C[C@H]21 | -6.81%
68 | COc1ccc(OC)c(-c2nc(CN(C)Cc3nncn3C)c(C)o2)c1 | -6.73%
69 | CSCCC(=O)N1CCC(Oc2cc(C)ccc2F)(C(=O)O)CC1 | -7.4%
70 | O=C(CCc1ccsc1)N1CCC(Cc2ccc(CO)cc2)C1 (centres undefined) | -3.39%
71 | O=C1N(Cc2ccc(F)c(F)c2)CCCC12CCN(C1CCSCC1)C2 (centres undefined) | 9.34%
72 | C=Cc1ccc(C(=O)N2CCCC(Nc3ccc(F)cc3)C2)cc1 (centres undefined) | 17%
73 | Cc1cc(N2CCN3CCCCC3C2)n2nc(C)c(C)c2n1 (centres undefined) | 1.57%
74 | Cc1cccc(CN2C[C@H]3OC(=O)N(CCCN4CCOCC4)[C@H]3C2)n1 | -10.1%
75 | O=S(=O)(NCC1CCOc2ccccc2C1)N1CCOCC1 (centres undefined) | -14.9%
76 | COCC1CCCN(C(=O)c2cc(Cn3ccc4ccccc43)[nH]n2)C1 (centres undefined) | -6.02%
77 | O=C(c1ccc(F)c(F)c1)N1CCCC(Nc2ccc(F)cc2)C1 (centres undefined) | -5.1%
78 | Cc1occc1C(=O)N1CCC2(CCC(=O)N(CC(N)=O)C2)CC1 | -2.77%
79 | CS(=O)(=O)CCC(=O)N1CCC2(CCCN(C3CCOCC3)C2=O)C1 (centres undefined) | -9.61%
80 | O=C(CSc1ccncc1)N1C[C@H]2CC[C@@H]1CN(Cc1cccnc1)C2 | -2.1%
81 | Cn1ncc2c(NCCC34CCCN3CCC4)nc(C3CCCC3)nc21 | 5.19%
82 | COCCCC1(CO)CCCN(CCS(C)(=O)=O)C1 (centres undefined) | -6%
83 | C[C@@H]1CN(C(=O)c2ccc(C#N)nc2)C[C@@]1(O)C1CC1 | 13.9%
84 | CCn1ccnc1CN(C)C1CCCN(CCc2ccccc2)C1 (centres undefined) | 1.27%
85 | O=C(CCc1ccc(=O)[nH]n1)N1CCCC(COc2ccc(F)cc2)C1 (centres undefined) | -1.69%
86 | O=C(c1ccsc1)N1C[C@@H](CN2CCCC2)[C@@H](CO)C1 | 13.3%
87 | CN(C)C(=O)c1ccc2c(c1)N(C)C(CC(=O)NCCC(C)(C)C)CO2 (centres undefined) | -5.81%
88 | O=S(=O)(N1CCCC1)N1CCCCC1CCc1ccccc1 (centres undefined) | -5.36%

Row | Compound | cytotoxicity at 70.5 h
89 | CN(Cc1csc(-c2cccs2)n1)C(=O)CCn1ccccc1=O | -17.2%
90 | Cc1csc(CCCNC(=O)[C@H]2CNC[C@@H](C(=O)N3CCCC3)C2)n1 | -9.44%
91 | O=C(CSc1ncccn1)N1C[C@H]2CC[C@@H]1CN(Cc1ccncc1)C2 | -0.441%
92 | CC(=O)c1cc(CC(=O)NCc2ccc(CN(C)C)cc2)cs1 | -7.31%
93 | COc1cccc(N2CCN(C(=O)[C@H](O)C3CCCCC3)CC2=O)c1 | -8.15%
94 | Cc1cc(-c2nn(C)c(Cl)c2CN2CCOCC2CC(=O)O)no1 (centres undefined) | -7.35%
95 | COc1ccc(OCc2nc(C(=O)N3CC(O)C3)co2)cc1 | -8.01%
96 | COc1ccccc1OCc1cc(C(=O)N2CC=CC2C(C)C)n[nH]1 (centres undefined) | -6.89%
97 | O=C(c1coc(COc2cccc(F)c2)n1)N1CC[C@H](O)[C@@H](O)C1 | -9.89%
98 | O=C(NCCCc1ccncc1)C1CCCN(Cc2ccco2)C1 (centres undefined) | 9.58%
99 | CCCc1nc(C)cc(N2CCC3(CCC(=O)N(CC4CC4)C3)CC2)n1 | -11.1%
100 | O=C(c1ccc(C2CCCO2)s1)N1CCS(=O)(=O)CC1 (centres undefined) | -8.51%
101 | O=C(CCC1CC1)N1C[C@@H](CN2CCCC2)[C@@H](CO)C1 | -13.2%
102 | Cc1noc(C)c1C1CCCN1C(=O)CN1CC2(CCNCC2)OC1=O (centres undefined) | 19.7%
103 | Cn1c(Cn2ccnc2)nnc1C1CCN(Cc2cccnc2N)CC1 | -9.06%
104 | CCn1cc(CNC2CC(=O)N(CCc3cccc(Cl)c3)C2)cn1 (centres undefined) | -3.19%
105 | Nc1nccc(N2CCCC(CO)(CCOc3ccccc3)C2)n1 (centres undefined) | 8.14%
106 | Cc1ccc(OC2(C(=O)O)CCN(C(=O)c3nc(C)oc3C)CC2)cn1 | -7.82%
107 | COC1CCCN(C(=O)Nc2nc(C)n(C)n2)C1 (centres undefined) | -8.2%
108 | O=C(c1ccc[nH]1)N1C[C@H]2CC[C@@H]1CN(C1Cc3ccccc3C1)C2 | -9.66%
109 | CC(C)N1CCC(N2CCN(C3CCC3)CC2CCO)CC1 (centres undefined) | -9.59%
